Assays:
Assay in all cases: relative viability (nuclei count vs DMSO), 5 days (fraction); higher = more cells survive
[1] = compound: COc1ccc(-c2ccc3c(N4CCOC[C@@H]4C)nc(N4CCOC[C@@H]4C)nc3n2)cc1CO [AZD8055] + CC(=O)c1c(C)c2cnc(Nc3ccc(N4CCNCC4)cn3)nc2n(C2CCCC2)c1=O [Palbociclib] (partner 0.5 µM)
Summary of the method: (§1)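 The day after seeding in 1536-well plates, lung cancer cell lines were treated by pin tool with a single drug, or with a fixed anchor-drug dose together with five library-drug doses (not always all listed) in √10 steps. After 5 days, a combined fix-and-stain solution (final 0.05% Triton X-100, 1% formaldehyde, 1 ug/ml Hoechst) was added. Nuclei counted on 4× images gave relative viability as treated counts over vehicle counts, reported as the median of duplicate plates.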

[2] = compound: COc1ccc(-c2ccc3c(N4CCOC[C@@H]4C)nc(N4CCOC[C@@H]4C)nc3n2)cc1CO [AZD8055] + C[C@@H](Oc1cc(-c2cnn(C3CCNCC3)c2)cnc1N)c1c(Cl)ccc(F)c1Cl [Crizotinib] (partner 1 µM)
Summary of the method: as §1

[3] = compound: COc1ccc(-c2ccc3c(N4CCOC[C@@H]4C)nc(N4CCOC[C@@H]4C)nc3n2)cc1CO [AZD8055] + NC(=O)Nc1cc(-c2cccc(F)c2)sc1C(=O)N[C@H]1CCCNC1 [AZD7762] (partner 0.2 µM)
Summary of the method: as §1

[4] = compound: COc1ccc(-c2ccc3c(N4CCOC[C@@H]4C)nc(N4CCOC[C@@H]4C)nc3n2)cc1CO [AZD8055] + O=C(CCCCCCC(=O)Nc1ccccc1)NO [Vorinostat] (partner 1 µM)
Summary of the method: as §1

Row | Cell Line | relative viability ([1]; first compound 0.01 µM) | relative viability ([1]; first compound 0.03162 µM) | relative viability ([1]; first compound 0.1 µM) | relative viability ([1]; first compound 0.3162 µM) | relative viability ([1]; first compound 1 µM) | relative viability ([2]; first compound 0.01 µM) | relative viability ([2]; first compound 0.03162 µM) | relative viability ([2]; first compound 0.1 µM) | relative viability ([2]; first compound 0.3162 µM) | relative viability ([2]; first compound 1 µM) | relative viability ([3]; first compound 0.01 µM) | relative viability ([3]; first compound 0.03162 µM) | relative viability ([3]; first compound 0.1 µM) | relative viability ([3]; first compound 0.3162 µM) | relative viability ([3]; first compound 1 µM) | relative viability ([4]; first compound 0.01 µM) | relative viability ([4]; first compound 0.03162 µM) | relative viability ([4]; first compound 0.1 µM) | relative viability ([4]; first compound 0.3162 µM) | relative viability ([4]; first compound 1 µM)
1 | NCI-H1975 | 0.712 | 0.388 | 0.252 | 0.151 | 0.161 | 0.943 | 0.959 | 0.515 | 0.386 | 0.254 | 0.732 | 0.636 | 0.466 | 0.328 | 0.348 | 0.749 | 0.623 | 0.448 | 0.282 | 0.263
2 | NCI-H1993 | 0.596 | 0.47 | 0.39 | 0.408 | 0.404 | 0.819 | 0.688 | 0.59 | 0.588 | 0.609 | 0.646 | 0.377 | 0.402 | 0.366 | 0.516 | 0.55 | 0.474 | 0.358 | 0.287 | 0.407
3 | NCI-H2085 | 0.493 | 0.448 | 0.386 | 0.37 | 0.3 | 0.927 | 0.805 | 0.639 | 0.359 | 0.315 | 0.994 | 0.848 | 0.706 | 0.409 | 0.362 | 0.645 | 0.554 | 0.49 | 0.44 | 0.363
4 | NCI-H2087 | 0.212 | 0.198 | 0.159 | 0.113 | 0.141 | 1.21 | 0.972 | 0.801 | 0.415 | 0.485 | 1.37 | 1.36 | 1.33 | 0.654 | 0.478 | 0.679 | 1.03 | 0.734 | 0.152 | 0.223
5 | NCI-H2126 | 0.323 | 0.329 | 0.362 | 0.284 | 0.323 | 0.997 | 1.02 | 0.926 | 0.617 | 0.494 | 1.03 | 1.07 | 0.902 | 0.587 | 0.508 | 0.82 | 0.739 | 0.505 | 0.496 | 0.405
6 | NCI-H2170 | 0.331 | 0.314 | 0.233 | 0.173 | 0.143 | 1.2 | 1.07 | 0.641 | 0.394 | 0.376 | 1.04 | 0.733 | 0.502 | 0.293 | 0.226 | 0.815 | 0.734 | 0.487 | 0.271 | 0.226
7 | NCI-H2347 | 0.428 | 0.44 | 0.384 | 0.346 | 0.352 | 0.601 | 0.509 | 0.402 | 0.332 | 0.531 | 0.781 | 0.614 | 0.633 | 0.449 | 0.281 | 0.424 | 0.66 | 0.406 | 0.304 | 0.352
8 | NCI-H2405 | 0.51 | 0.47 | 0.384 | 0.336 | 0.295 | 0.804 | 0.815 | 0.681 | 0.516 | 0.311 | 0.832 | 0.779 | 0.621 | 0.324 | 0.313 | 1.19 | 0.918 | 0.796 | 0.36 | 0.373
9 | NCI-H3122 | 0.194 | 0.197 | 0.155 | 0.147 | 0.117 | 0.248 | 0.238 | 0.183 | 0.174 | 0.171 | 1.13 | 1.01 | 0.594 | 0.351 | 0.187 | 0.809 | 0.999 | 0.877 | 0.442 | 0.338
10 | PC-3 [JPC-3] | 0.515 | 0.557 | 0.516 | 0.435 | 0.458 | 1.06 | 1.05 | 1.01 | 0.712 | 0.53 | 0.772 | 0.681 | 0.728 | 0.37 | 0.399 | 0.849 | 0.902 | 0.631 | 0.534 | 0.495
11 | PC-14 | 0.698 | 0.589 | 0.255 | 0.108 | 0.12 | 1.06 | 1.02 | 0.771 | 0.448 | 0.21 | 0.458 | 0.394 | 0.294 | 0.147 | 0.102 | 0.78 | 0.606 | 0.586 | 0.201 | 0.125
12 | RERF-LC-KJ | 1.11 | 1.09 | 0.779 | 0.441 | 0.412 | 0.863 | 0.974 | 0.756 | 0.578 | 0.452 | 1.26 | 1.08 | 0.659 | 0.402 | 0.434 | 0.819 | 0.665 | 0.575 | 0.446 | 0.384

Source: the supplement of paper PMC10307832
